Values quoted from earlier work in patent publication US20260345480A1, “PHARMACEUTICAL DOSAGE FORMS FOR PULSATILE RELEASE” (CHIESI FARMACEUTICI S.P.A., priority 2023, published 2026).

System: animals
Conditions: continuous infusion for periods longer than 24 hours

SMILES: Cc1c(O)c(=O)ccn1C [deferiprone]
- toxicity on continuous infusion (in words): potential toxicity of deferiprone observed in animals undergoing continuous infusion for periods longer than 24 hours
